Assays:
[1] = Toxicity in mouse xenografted with human ASPC1 cells assessed as serum creatinine level at 10 mg/kg,ip administrated twice daily for 20 consecutive days (reference value: 28.2 +/- 2.1 umol/L); assay type: organism-based; conditions: in vivo
ASPC1 [2] = assay: Antitumor activity against human ASPC1 cells xenografted in mouse assessed as inhibition of tumor growth at 10 mg/kg,ip administrated twice daily for 20 consecutive days relative to control; assay type: functional; conditions: read-out: TGI
[3] = Toxicity in mouse xenografted with human ASPC1 cells assessed as change in lung morphology at 10 mg/kg,ip administrated twice daily for 20 consecutive days by Hematoxylin-eosin staining based microscopic analysis; assay type: organism-based; conditions: in vivo
[4] = Toxicity in mouse xenografted with human ASPC1 cells assessed as change in spleen morphology at 10 mg/kg,ip administrated twice daily for 20 consecutive days by Hematoxylin-eosin staining based microscopic analysis; assay type: organism-based; conditions: in vivo
[5] = Half life in Sprague-Dawley rat at 1 mg/kg,iv measured upto 24 hrs by LC-MS/MS analysis; assay type: ADME, organism-based; conditions: in vivo
[6] = Toxicity in mouse xenografted with human ASPC1 cells assessed as change in lung morphology at 20 mg/kg,ip administrated twice daily for 20 consecutive days by Hematoxylin-eosin staining based microscopic analysis; assay type: organism-based; conditions: in vivo
ASPC1 [7] = assay: Induction of apoptosis in human ASPC1 cells harboring […] assessed as late apoptotic cells at 50 uM incubated for 24 hrs by annexin V and propidium iodide staining based flow cytometry analysis (reference value: 6.96%); assay type: functional
ASPC1 [8] = assay: Induction of apoptosis in human ASPC1 cells harboring […] assessed as late apoptotic cells at 25 uM incubated for 24 hrs by annexin V and propidium iodide staining based flow cytometry analysis (reference value: 6.96%); assay type: functional
[9] = Toxicity in mouse xenografted with human ASPC1 cells assessed as change in kidney morphology at 20 mg/kg,ip administrated twice daily for 20 consecutive days by Hematoxylin-eosin staining based microscopic analysis; assay type: organism-based; conditions: in vivo
[10] = Toxicity in mouse xenografted with human ASPC1 cells assessed as change in heart morphology at 20 mg/kg,ip administrated twice daily for 20 consecutive days by Hematoxylin-eosin staining based microscopic analysis; assay type: organism-based; conditions: in vivo
AGS [11] = assay: Antiproliferative activity against human AGS cells harboring […] assessed as inhibition of cell growth incubated for 5 days by crystal violet staining analysis; assay type: functional, cell-based; conditions: Homo sapiens, AGS, 120 h
[12] = Toxicity in mouse xenografted with human ASPC1 cells assessed as serum ratio of AST/ALT at 20 mg/kg,ip administrated twice daily for 20 consecutive days (reference value: 6.5 +/- 1.7); assay type: organism-based; conditions: in vivo
[13] = Inhibition of recombinant human His6-tagged KRAS4B G12D mutant incubated for 1 hr by HTRF assay
ASPC1 [14] = assay: Antitumor activity against human ASPC1 cells xenografted in mouse assessed as inhibition of tumor growth at 20 mg/kg,ip administrated twice daily for 20 consecutive days relative to control; assay type: functional; conditions: read-out: TGI
[15] = Toxicity in mouse xenografted with human ASPC1 cells assessed as serum blood urea nitrogen level at 20 mg/kg,ip administrated twice daily for 20 consecutive days (reference value: 16.3 +/- 1.6 mmol/L); assay type: organism-based; conditions: in vivo
[16] = Metabolic stability in dog liver microsomes assessed as half life at 150 uM measured after 60 mins in presence of NADPH by LC-MS/MS analysis; assay type: ADME, Canis lupus familiaris, Microsome
[17] = Toxicity in mouse xenografted with human ASPC1 cells assessed as change in body weight at 10 mg/kg,ip administrated twice daily for 20 consecutive days; assay type: organism-based; conditions: in vivo
AGS [18] = assay: Induction of apoptosis in human AGS cells harboring […] assessed as early apoptotic cells at 50 uM incubated for 24 hrs by annexin V and propidium iodide staining based flow cytometry analysis (reference value: 4.05%); assay type: functional
[19] = AUC in Sprague-Dawley rat at 3 mg/kg,po measured upto 24 hrs by LC-MS/MS analysis; assay type: ADME, organism-based; parameters: time < 24 hrs, dose 3 mg/kg, route po; conditions: in vivo
[20] = AUC in Sprague-Dawley rat at 1 mg/kg,iv measured upto 24 hrs by LC-MS/MS analysis; assay type: ADME, organism-based; parameters: dose 1 mg/kg, time < 24 hrs, route iv; conditions: in vivo
[21] = Metabolic stability in dog liver microsomes assessed as intrinsic clearance at 150 uM measured after 60 mins in presence of NADPH by LC-MS/MS analysis; assay type: ADME, Canis lupus familiaris, Microsome; conditions: read-out: CLH
[22] = Toxicity in mouse xenografted with human ASPC1 cells assessed as change in body weight at 20 mg/kg,ip administrated twice daily for 20 consecutive days; assay type: organism-based; conditions: in vivo
[23] = Toxicity in mouse xenografted with human ASPC1 cells assessed as serum creatinine level at 20 mg/kg,ip administrated twice daily for 20 consecutive days (reference value: 28.2 +/- 2.1 umol/L); assay type: organism-based; conditions: in vivo
NCI-H1299 = assay: Antiproliferative activity against human NCI-H1299 cells harboring KRAS wild type assessed as inhibition of cell growth incubated for 5 days by crystal violet staining analysis; assay type: functional, cell-based; conditions: NCI-H1299, 120 h
AGS [24] = assay: Induction of apoptosis in human AGS cells harboring […] assessed as late apoptotic cells at 50 uM incubated for 24 hrs by annexin V and propidium iodide staining based flow cytometry analysis (reference value: 7.74%); assay type: functional
[25] = Metabolic stability in rat liver microsomes assessed as intrinsic clearance at 150 uM measured after 60 mins in presence of NADPH by LC-MS/MS analysis; assay type: ADME, Microsome; conditions: read-out: CLH
[26] = Clearance in Sprague-Dawley rat at 1 mg/kg,iv measured upto 24 hrs by LC-MS/MS analysis; assay type: ADME, organism-based; conditions: in vivo
[27] = Toxicity in mouse xenografted with human ASPC1 cells assessed as change in kidney morphology at 10 mg/kg,ip administrated twice daily for 20 consecutive days by Hematoxylin-eosin staining based microscopic analysis; assay type: organism-based; conditions: in vivo
[28] = Toxicity in mouse xenografted with human ASPC1 cells assessed as serum ratio of AST/ALT at 10 mg/kg,ip administrated twice daily for 20 consecutive days (reference value: 6.5 +/- 1.7); assay type: organism-based; conditions: in vivo
ASPC1 [29] = assay: Induction of apoptosis in human ASPC1 cells harboring […] assessed as early apoptotic cells at 50 uM incubated for 24 hrs by annexin V and propidium iodide staining based flow cytometry analysis (reference value: 5.22%); assay type: functional
[30] = Toxicity in mouse xenografted with human ASPC1 cells assessed as change in liver morphology at 20 mg/kg,ip administrated twice daily for 20 consecutive days by Hematoxylin-eosin staining based microscopic analysis; assay type: organism-based; conditions: in vivo
[31] = Toxicity in mouse xenografted with human ASPC1 cells assessed as change in heart morphology at 10 mg/kg,ip administrated twice daily for 20 consecutive days by Hematoxylin-eosin staining based microscopic analysis; assay type: organism-based; conditions: in vivo
[32] = Metabolic stability in monkey liver microsomes assessed as intrinsic clearance at 150 uM measured after 60 mins in presence of NADPH by LC-MS/MS analysis; assay type: ADME, Macaca mulatta, Microsome; conditions: rhesus monkey, read-out: CLH
AGS [33] = assay: Induction of apoptosis in human AGS cells harboring […] assessed as late apoptotic cells at 25 uM incubated for 24 hrs by annexin V and propidium iodide staining based flow cytometry analysis (reference value: 7.74%); assay type: functional
ASPC1 [34] = assay: Antiproliferative activity against human ASPC1 cells harboring […] assessed as inhibition of cell growth incubated for 5 days by crystal violet staining analysis; assay type: functional, cell-based; conditions: Homo sapiens, ASPC1, 120 h
[35] = Half life in Sprague-Dawley rat at 3 mg/kg,po measured upto 24 hrs by LC-MS/MS analysis; assay type: ADME, organism-based; conditions: in vivo
GTPase KRas = GTPase KRas (Homo sapiens, UniProt P01116); assay: Inhibition of recombinant human GTP-bound KRAS wild type (1 to 169 residues) incubated for 1 hr by HTRF assay
[36] = Toxicity in mouse xenografted with human ASPC1 cells assessed as serum blood urea nitrogen level at 10 mg/kg,ip administrated twice daily for 20 consecutive days (reference value: 16.3 +/- 1.6 mmol/L); assay type: organism-based; conditions: in vivo
[37] = Toxicity in mouse xenografted with human ASPC1 cells assessed as change in liver morphology at 10 mg/kg,ip administrated twice daily for 20 consecutive days by Hematoxylin-eosin staining based microscopic analysis; assay type: organism-based; conditions: in vivo
[38] = Metabolic stability in rat liver microsomes assessed as half life at 150 uM measured after 60 mins in presence of NADPH by LC-MS/MS analysis; assay type: ADME, Microsome
[39] = Metabolic stability in monkey liver microsomes assessed as half life at 150 uM measured after 60 mins in presence of NADPH by LC-MS/MS analysis; assay type: ADME, Macaca mulatta, Microsome; conditions: rhesus monkey
[40] = Toxicity in mouse xenografted with human ASPC1 cells assessed as change in spleen morphology at 20 mg/kg,ip administrated twice daily for 20 consecutive days by Hematoxylin-eosin staining based microscopic analysis; assay type: organism-based; conditions: in vivo
AGS [41] = assay: Induction of apoptosis in human AGS cells harboring […] assessed as early apoptotic cells at 25 uM incubated for 24 hrs by annexin V and propidium iodide staining based flow cytometry analysis (reference value: 4.05%); assay type: functional
A549 = assay: Antiproliferative activity against human A549 cells harboring […] assessed as inhibition of cell growth incubated for 5 days by crystal violet staining analysis; assay type: functional, cell-based; conditions: Homo sapiens, A549, 120 h
ASPC1 [42] = assay: Induction of apoptosis in human ASPC1 cells harboring […] assessed as early apoptotic cells at 25 uM incubated for 24 hrs by annexin V and propidium iodide staining based flow cytometry analysis (reference value: 5.22%); assay type: functional

## [2H]C([2H])(Oc1nc(N2C[C@H]3CC[C@@H](C2)N3)c2cnc(-c3cc(N)cc4ccc(F)c(C#C)c34)c(F)c2n1)C12CCCN1CC(=C(F)F)C2 (stereo partly drawn)
[1]
  Activity: 29.7 µmol/L
ASPC1 [2]
  inhibition in vivo at 10 mg/kg: 53.3%
[3]
  Activity: Non-Toxic
[4]
  Activity: Non-Toxic
[5]
  half-life: 660 min
[6]
  Activity: Non-Toxic
ASPC1 [7]
  Activity: 11.8%
ASPC1 [8]
  Activity: 10.8%
[9]
  Activity: Non-Toxic
[10]
  Activity: Non-Toxic
AGS [11]
  IC50: 0.9 nM
[12]
  Ratio: 4.5
[13]
  IC50: 1.19 nM
ASPC1 [14]
  inhibition in vivo at 20 mg/kg: 71.3%
[15]
  Activity: 16.7 mmol/L
[16]
  half-life at 150 µM: 85.6 min
[17]
  Activity: Non-Toxic
AGS [18]
  Activity: 9.08%
[19]
  AUC at 24 h: 2.89 ng·h/mL
[20]
  AUC at 24 h: 102 ng·h/mL
[21]
  microsomal CLint at 150 µM: 16.2 µL/min/mg
[22]
  Activity: Non-Toxic
[23]
  Activity: 23.5 µmol/L
NCI-H1299
  IC50: 1850 nM
AGS [24]
  Activity: 13.7%
[25]
  microsomal CLint at 150 µM: 15 µL/min/mg
[26]
  clearance: 168 mL/min/kg
[27]
  Activity: Non-Toxic
[28]
  Ratio: 4.5
ASPC1 [29]
  Activity: 12.4%
[30]
  Activity: Non-Toxic
[31]
  Activity: Non-Toxic
[32]
  microsomal CLint at 150 µM: 45.4 µL/min/mg
AGS [33]
  Activity: 11%
ASPC1 [34]
  IC50: 1.6 nM
[35]
  half-life: 22.9 min
GTPase KRas
  IC50: 16.7 nM
[36]
  Activity: 19.2 mmol/L
[37]
  Activity: Non-Toxic
[38]
  half-life at 150 µM: 92.4 min
[39]
  half-life at 150 µM: 30.5 min
[40]
  Activity: Non-Toxic
AGS [41]
  Activity: 8.84%
A549
  IC50: 1190 nM
ASPC1 [42]
  Activity: 9.56%

## [2H]C([2H])(Oc1nc(N2C[C@H]3CC[C@@H](C2)N3)c2cnc(-c3cc(O)cc4ccc(F)c(C#C)c34)c(F)c2n1)C12CCCN1CC(=C(F)F)C2 (stereo partly drawn)
[1]
  Activity: 25.9 µmol/L
ASPC1 [2]
  inhibition in vivo at 10 mg/kg: 55.3%
[3]
  Activity: Non-Toxic
[4]
  Activity: Non-Toxic
[5]
  half-life: 18.4 min
[6]
  Activity: Non-Toxic
ASPC1 [7]
  Activity: 18.7%
ASPC1 [8]
  Activity: 10%
[9]
  Activity: Non-Toxic
[10]
  Activity: Non-Toxic
AGS [11]
  IC50: 0.3 nM
[12]
  Ratio: 5.7
[13]
  IC50: 0.48 nM
ASPC1 [14]
  inhibition in vivo at 20 mg/kg: 73.4%
[15]
  Activity: 14.1 mmol/L
[16]
  half-life at 150 µM: 26.8 min
[17]
  Activity: Non-Toxic
AGS [18]
  Activity: 13.1%
[20]
  AUC at 24 h: 37.2 ng·h/mL
[21]
  microsomal CLint at 150 µM: 51.8 µL/min/mg
[22]
  Activity: Non-Toxic
[23]
  Activity: 22.2 µmol/L
NCI-H1299
  IC50: 1940 nM
AGS [24]
  Activity: 14%
[25]
  microsomal CLint at 150 µM: 16.6 µL/min/mg
[26]
  clearance: 490 mL/min/kg
[27]
  Activity: Non-Toxic
[28]
  Ratio: 5
ASPC1 [29]
  Activity: 11.5%
[30]
  Activity: Non-Toxic
[31]
  Activity: Non-Toxic
[32]
  microsomal CLint at 150 µM: 57 µL/min/mg
AGS [33]
  Activity: 9.76%
ASPC1 [34]
  IC50: 0.6 nM
GTPase KRas
  IC50: 10.2 nM
[36]
  Activity: 13.5 mmol/L
[37]
  Activity: Non-Toxic
[38]
  half-life at 150 µM: 83.5 min
[39]
  half-life at 150 µM: 24.3 min
[40]
  Activity: Non-Toxic
AGS [41]
  Activity: 11.4%
A549
  IC50: 332 nM
ASPC1 [42]
  Activity: 9.17%

Reference: ChEMBL document CHEMBL5390265, “Design, Synthesis, and Pharmacological Evaluation of Multisubstituted Pyrido[4,3-d]pyrimidine Analogues Bearing Deuterated Methylene Linkers as Potent KRASG12D Inhibitors” (J Med Chem, 2023)
